Source: patent US20180119105A1, “METHOD FOR PRODUCTION OF INSULIN-PRODUCING CELLS” (University of Copenhagen, priority 2015, published 2018)

Experiments:
[1] = system: Stable Pdx1 Gfp human ES cells differentiated to pancreatic progenitor stage; test: Immunostaining (c-peptide, Neurogenin3) with confocal microscopy of hES cell derived pancreatic progenitors treated with VP for 5 days; format: cell-based; conditions: VP 1 μg/ml, compared to DMSO treated cells
Experimental: FIG. 8: hES cell derived pancreatic progenitors treated with VP for 5 days show enhanced endocrine differentiation & Insulin expression. Stable Pdx1 Gfp human ES cells were differentiated to pancreatic progenitor stage and then treated with either DMSO (control) or Verteporfin (VP, 1 μg/ml) for 5 additional days. Cultures were immuno-stained with c-peptide (light grey) and Neurogenin3 (dark grey) antibodies and imaged using confocal microscope.
Stable Pdx1 Gfp human ES cells were differentiated to pancreatic progenitor stage and then treated with either DMSO (control) or Verteporfin (VP, 1 μg/ml) for 5 additional days. Cultures were immuno-stained with c-peptide and Neurogenin3 antibodies and imaged using confocal microscopy (FIG. 8).

[2] = system: hES cell derived pancreatic progenitors (PDX1 eGFP); test: qRT PCR analysis of hES cell derived pancreatic progenitors treated with verteporfin for 4 days; format: cell-based, human; conditions: 1 μg/ml verteporfin, compared to DMSO treated control cultures
Experimental: FIG. 5: Inhibition of YAP1 in hES cell derived pancreatic progenitors leads to β-cell differentiation. (A) Outline of the 15 day protocol (modified from Rezania et al, 2010) used to generate pancreatic progenitors from human ES cells. At the end of the protocol the majority of cells express the progenitor markers PDX1 and NKX6.1. The YAP1-TEAD inhibitor Verteporfin (VP) was added to the medium during PE day 4 and the cells were treated for either 4 or 5 days. […] Y axis: relative mRNA expression as fold change.
(§1) We cultured the hES PDX1 GFP cells using a modified protocol from Rezania et al 2010 (see below for the exact protocol, outlined in FIG. 5A) that efficiently generates pancreatic progenitors mostly expressing PDX1, NKX6.1. Briefly, Hues4 hES PDX1 GFP cells were cultured on feeder-free DEF system (““DEF-CS™”, Cellectis stem cells, Cellartis AB”) until full confluency. When full confluency was reached the cells were subjected to differentiation as follows for 5 different stages to obtain insulin producing mature Beta cells.
(§2) Cells were cultured in RPMI medium with 3 μM CHIR99021 (a Wnt activator) for 1 day. During the second day the cells were treated with 100 ng/ml Activin A. For days 3 and 4 the cells were treated with 100 ng/ml Activin A along with 2% (v/v) B27.
(§3) The cultures were exposed to F12 media containing 2% B27, 2 gm/L Sodium bicarbonate along with 0.25 mM Vitamin C and 50 ng/ml FGF7 for two days.
(§4) The cultures were continued for four days in DMEM high glucose media along with 2% B27, 2 g/L Sodium bicarbonate, 0.25 mM Vitamin C, 2 ng/ml FGF7, 0.25 μM Sant1, 100 ng/ml Noggin and 2 μM Retinoic acid.
(§5) Stage 4 cells were cultured for 5 days to obtain PDX1 and NKX6.1 expressing pancreatic progenitor cells by culturing in 2% B27, 2 gm/L Sodium bicarbonate, 0.25 mM Vitamin C, 100 ng/ml Noggin and 500 nM TPB (PKC activator).
(§6) To obtain insulin expressing, MAFA positive mature Beta cells, the cultures were treated with the YAP-TEAD inhibitor Verteporfin at a concentration of 1 μg/ml in Stage 4 medium and cultured for another 4-9 days.
(§7) After culturing the cells for the first 4 stages above (around 15 days), the differentiated hES cells were enriched for PDX1 expression as they expressed GFP. These enriched pancreatic progenitor cultures were treated with the YAP1 -TEAD chemical inhibitor Verteporfin for an additional 4-5 days and checked for gene expression (stage 5). As expected from mouse studies, inhibition of YAP1 activity in the PDX1 enriched cells, using verteporfin after 4 days led to efficient and enhanced endocrine differentiation especially towards insulin producing beta cells at the expense of acinar lineage.

[3] = system: hES cell derived pancreatic progenitors (PDX1-eGFP); test: Immunostaining (C-peptide, Glucagon, GFP) of hES cell derived pancreatic progenitors treated with verteporfin for 5 days; format: cell-based, human
Source text: FIG. 7: Treating hES cell derived pancreatic progenitors with verteporfin for 5 days leads to enhanced insulin expression. Stable PDX1-eGFP human ES cells were differentiated to pancreatic progenitor stage and treated with either DMSO (controls) or Verteporfin for 5 days and immuno stained with C-peptide (white), Glucagon (dark grey) and GFP PDX1 (light grey). Verteporfin-treated progenitors show enhanced endocrine/beta cell differentiation and express higher levels of C-peptide, whereas DMSO treated cells express low levels of C-peptide and Glucagon.
(§8) The verteporfin treatment directed the pancreatic progenitors to endocrine lineage differentiation at the expense of acinar lineage.

[4] = system: hES cell derived pancreatic progenitors (PDX1 eGFP); test: qRT PCR analysis of hES cell derived pancreatic progenitors treated with verteporfin for 5 days; format: cell-based, human; conditions: verteporfin 5 days
Experimental: FIG. 6: Treatment with verteporfin for 5 days leads to enhanced expression of islet specific genes. […] Expression of NKX6.1 is not altered, as it is expressed in both pancreatic progenitors and mature beta-cells. […]
as §1, §2, §3, §4, §5, §6, §7, §8

[5] = system: Wild type C57bl6 mouse pancreatic explants at E11.5; test: RT-qPCR of endocrine gene expression in mouse pancreatic explants cultured ex-vivo with Verteporfin; format: cell-based; conditions: 1 μg/ml Verteporfin for 72 hours; RT-qPCR after 6 days of culture; fold change relative to Ecad expression
Experimental: FIG. 4: Inhibition of Yap1 using Verteporfin in wild type mouse pancreatic explants leads to enhanced endocrine differentiation. Wild type C57bl6 mouse pancreatic explants at E11.5 embryonic stages were cultured ex-vivo for initial 24 hrs in normal culture media supplemented with 1 ug/ml Verteporfin for 72 hours and again in normal culture media without Verteporfin for another 48 hours. The explants were analyzed by RT-qPCR for endocrine gene expression after 6 days of culture. […] This ultimately leads to enhanced endocrine differentiation as analysed for Insulin (E) and Glucagon (F) expression. Y axis: relative expression (fold change relative to Ecad expression).
Wild type C57bl6 mouse pancreatic explants at E11.5 embryonic stages were cultured ex-vivo for initial 24 hours in normal culture media supplemented with 1 μg/ml Verteporfin for 72 hours and again in normal culture media without Verteporfin for another 48 hours. The explants were analyzed by RT-qPCR for endocrine gene expression after 6 days of culture. […] Expression of these genes is characteristic of islet cell fate.

[6] = verteporfin 5 days vs DMSO, immunostaining
[7] = fold-change versus DMSO control

For Verteporfin, the “Ngn3 level (immunostaining)” value [1] was “higher levels”, the “c-peptide level (immunostaining)” value [1] was “higher levels” and the “CPA1 mRNA expression (exocrine gene)” value [2] was “down-regulated”. The “Glucagon mRNA expression” value [2] was “up-regulation”, the “ISL-1 mRNA expression” value [2] was “up-regulation” and the “Insulin mRNA expression” value [2] was “up-regulation”. For the same substance, the “MAFA mRNA expression” value [2] was “up-regulation”, the “MAFB mRNA expression” value [2] was “up-regulation” and the “PTF1a mRNA expression (exocrine gene)” value [2] was “down-regulated”. The “MAFA status of Insulin expressing cells” value ([3]; verteporfin 5 days) was “positive for MAFA”, the Glucagon protein expression [3, 6] was “enhanced” and the “insulin (c-peptide) protein expression” value [3, 6] was “enhanced”. For the same substance, the “insulin mRNA levels up-regulated” value ([4]; compared to DMSO control cultures) was 5 fold, the “INSM1 mRNA expression” value ([4]; compared to day 4 cultures) was “up-regulation” and the “ISL1 mRNA expression” value ([4]; compared to day 4 cultures) was “up-regulation”. For the same substance, the “MAFA mRNA expression” value ([4]; compared to day 4 cultures) was “up-regulation”, the “CPA1 mRNA expression (exocrine gene)” value [4, 7] was “down-regulation” and the “Glucagon mRNA expression” value [4, 7] was “down-regulation”. For the same substance, the “MAFB mRNA expression” value [4, 7] was “up-regulation”, the “NKX6.1 mRNA expression” value [4, 7] was “not altered” and the “Neurogenin3 (NGN3) mRNA expression” value [4, 7] was “up-regulation”. The “PTF1a mRNA expression (exocrine gene)” value [4, 7] was “down-regulation”, the Arx expression [5] was “significant up-regulation” and the Glucagon expression [5] was “increased expression”. The Insm1 expression [5] was “significant up-regulation”, the Insulin expression [5] was “increased expression” and the NeuroD expression [5] was “significant up-regulation”. For the same substance, the “Neurogenin (Ngn3) expression” value [5] was “significant up-regulation”.
